Data set [1] in a line: In vitro release, dialysis method (Example 2). It counts as physicochemical. Here is the method: The mean particle size, PI and zeta potential were measured every day. The in vitro release behavior was measured in the dissolution medium, which was composed of 1× phosphate buffer saline (1×PBS, pH 7.4) and methanol (80:20, v/v), using a dialysis method. […] R released into the medium at each time point was determined using the Shimadzu high-performance liquid chromatography (HPLC) system (Shimadzu Corporation, Kyoto, Japan).

The conditions of data set [2]: cited from earlier work.
Data set [3] can be described thus: Chemical stability of R by HPLC under light or dark. It counts as physicochemical.
Data set [4] concerns primary stromal stem/progenitor cells derived from inguinal WAT (iWAT). The note with it: 10 μM, brown-like differentiation; cited from earlier work.
The nature of data set [5]: In vitro release, dialysis method (Example 1). In kind it is physicochemical. The note with it: for R released from dialysis bag: bag containing 0.5 mg R. Here is the method:
The dissolution medium was composed of 1×PBS and methanol (80:20, v/v). […] See Sun et al., Colloids Surf B Biointerfaces, 113 (2014) 15-24.
The release study was conducted in the dark to prevent light-induced R degradation. To minimize the effect of R stability, the dissolution medium was changed completely each hour for the first 2 hr, and every 2 hr for the rest 8 hr.

The nature of data set [6]: Aqueous solubility, 1 mg R in 1 mL 1×PBS. It counts as physicochemical. The note with it: visual observation.
The subject of data set [7] is obese C57BL/6J mice. The data set can be described thus: Anti-obesity study: body weight, composition, food intake, fat pads, adipocyte size. In kind it is in vivo. Here is the method:
(§1) Sixty male 6-week old C57BL/6J mice from Jackson's lab were fed with a high-fat diet (HFD) (45% energy from fat, Research Diets, Inc, D12451) for 9 weeks starting from week 1 (age 7 weeks old) to week 9 (age 15 weeks old). The mice were allowed to drink and eat the HFD ad libitum and maintained at 22-24° C., 45% relative humidity and a daily 12/12 hour light/dark cycle. […] Treatments were intravenously injected into mice via tail veins twice a week. Food intake and body weight were recorded weekly. Glucose tolerance test (GTT) was conducted at week 8 and the insulin tolerance test (ITT) and cold tolerance test were conducted at week 9.
After 9 weeks, mice were fasted overnight and humanely sacrificed. Blood was collected from the abdominal vein and brain, liver, lung, spleen, kidneys, skeletal muscle, gonadal white adipose tissue (G-WAT), inguinal WAT (I-WAT), retroperitoneal WAT (RP-WAT), and BAT of each mouse. Each tissue was cut into 3 pieces to be immediately frozen in liquid nitrogen followed by storage at −80° C. and fixed in 4% paraformaldehyde (for histology).
Body composition of mice was performed at week 0, 2, 4 and 5 of treatments using an EchoMRI™ Whole Body Composition Analyzer (MRI system) (EchoMRI LLC, Houston, Tex., USA).
H&E staining of I-WAT was conducted by the Department of Pathology of Texas Tech University Health Sciences Center. Briefly, the paraffin-embedded I-WAT sections (5 μm) were deparaffinized and rehydrated with xylene and ethanol. Sections were cleaned with water to skim reagent residue. Excess water was then blotted, the sections were incubated with Hematoxylin for 4 minutes, and washed several times using water. The sections were stained with Eosin and dehydrated. Finally, the sections were cleaned and covered with xylene-based mounting medium.

In data set [8] the test system is obese C57BL/6J mice. The data set can be described thus: Fasting insulin, glucose, HOMA-IR, leptin, GTT and ITT. To be noted: mouse, in vivo. Here is the method: as §1
GTT and ITT were performed at end of treatments to assess whole-body glucose and insulin tolerance. […] Blood was collected and blood glucose concentrations were measured with a One Touch® glucometer from tail vein blood at 0, 15, 30, 60, 90, and 120 minutes post-injection. […] Blood glucose concentrations were measured as above at 0, 15, 30, 45, and 60 minutes post-injection. The area under the curve (AUC) was calculated. Blood glucose concentrations were plotted against time and the area under curve was calculated by following formula: […]
Fasting plasma glucose concentrations were measured by One Touch® glucometer. Fasting insulin concentrations were determined by an insulin Millipore® ELISA commercial kit (Millipore, Billerica, Mass., USA). […]

Another data set deals with 3T3-L1 white adipocytes. The data set can be described thus: Browning: marker mRNA by Real Time-PCR in differentiating adipocytes, basal or ISO-stimulated. In kind it is cell-based, Murine. As for the experimental part:
The cells were then stimulated with isoproterenol (ISO) for 6 hr. Relative mRNA expression of Uncoupling protein 1 (UCP-1), PPARγ, PPARγ co-activator 1α (PGC-1α), and PR-domain-containing 16 (PRDM16) were analyzed by semi-quantitative Real Time-PCR. Data=mean±SEM (n=3). E, Ethanol containing vehicle control for native R. R, rosiglitazone, a positive control. Letters of a-c or a′-c′ on top of the bars define differences among various forms of R under either basal or ISO-stimulated conditions, respectively. Different letters indicate significant differences among various R. *, p<0.05; **, p<0.01; ***, p<0.001 compared to their controls.
The cells were then stimulated with ISO for 6 hr. Relative mRNA expression of white marker insulin-like growth factor-binding protein 3 (IGFBP3) (FIG. 9A) and beige marker CD137 and transmembrane protein 26 (Tmem26) (FIG. 9B) were analyzed by semi-quantitative reverse transcription polymerase chain reaction (RT-PCR). Data=mean±SEM (n=3). E, Ethanol containing vehicle control for native R. R, rosiglitazone, a positive control. Letters of a-c or a′-c′ on top of the bars define differences among various forms of R under both basal and ISO-stimulated conditions, respectively. Different letters indicate significant differences among various R. *, p<0.05; **, p<0.01 compared to the controls.
Total RNA was extracted, cDNA was synthesized, and real-time PCR was performed using an ABI 7300HT instrument.
The hallmark of beige adipocytes is induced thermogenesis in response to stimuli, such as […] agonist ISO.

For data set [9], the target named is decorin lacking the glycanation site (ΔDCN), on ΔDCN-transduced 3T3-L1 cells (ΔDCN cells). The data set can be described thus: flow cytometry of ΔDCN cells incubated 2 h at 37° C. with DiD-labelled nanoparticles.
Data set [10] deals with endogenous surface ΔDCN receptor of mouse adipose stromal cells (ASC) in C57BL/6J white adipose tissue stromal vascular cells (mouse). The data set can be described thus: cell-based or functional assay.
Data set [11] addresses decorin lacking the glycanation site (ΔDCN), on ΔDCN-transduced 3T3-L1 cells (ΔDCN cells). The data set can be described thus: cell-based or functional assay.

The values that follow come from patent US20200368174A1, “PARTICLES FOR TARGETED DELIVERY OF ACTIVE AGENTS INTO ADIPOSE STROMAL CELLS” (Texas Tech University System, priority 2018, published 2020).

Where no end group is shown, it is not given here. Side-chain parts run from the residue outwards. The star is where a group is joined. DSPE = CCCCCCCCCCCCCCCCCC(=O)OC[C@H](COP(=O)(O)OCCN*)OC(=O)CCCCCCCCCCCCCCCCC; MAL = maleimide

`Oc1ccc(/C=C/c2cc(O)cc(O)c2)cc1` [native R, 3,5,4′-trihydroxy-trans-stilbene]: the R release result in data set [1] (after eight hours) is “undetected”. For the same molecule, the “R released from dialysis bag” value in data set [1] (first two hours) is listed as “more than 0.13 mg”; in data set [5] (2-4 hr period), “about 0.02 mg”; in data set [5] (after 1 hr), “about 0.17 mg”. Moreover, the “released R as share of total R” value in data set [1] (first two hours) is “around 35%”. The “mass of R released at every time point” value in [1] (following six hours) was “lower than 0.02 mg”. The “solubility of R in water and physiological fluid” value in data set [2] is reported as “less than 0.1 mg/mL”. The R degradation rate in [3] (4° C., dark, 7 days) is given as 17%; in data set [3] (22° C., dark, 7 days) it was 48%; in data set [3] (37° C., dark, 7 days), 52%; in [3] (37° C., under the light, 6 days), 90%. In addition, the R degraded is given as 40% in data set [3] (pH 7.4, 4° C., under the light, 7 days); 60% in data set [3] (pH 7.4, 22° C., under the light, 7 days); 96% in data set [3] (pH 7.4, 37° C., under the light, 7 days). Also, the “mRNA expression of UCP1 and beige marker CD137 and Tmem26” value in data set [4] was “enhanced”. In addition, the release behavior result in [5] (1×PBS:methanol 80:20, dark) is recorded as “burst release”. The “accumulative released R mass” value in data set [5] (10 hr period) is “reached a plateau”. For the same molecule, the “dissolution of 1 mg in 1 mL of 1×PBS” value in [6] is listed as “hardly dissolved”. The “diameter of adipocytes in I-WAT” value in the data set on obese C57BL/6J mice [7] (H&E sections, after 5 weeks) is “around 100 μm”. Moreover, in the data set with obese C57BL/6J mice [7] (HFD mice, 15 mg/kg, IV twice a week, 5 weeks, vs saline), the body weight entry is “no significant reduction”. For the same molecule, the “percentage of body fat (% body fat)” value in the data set with obese C57BL/6J mice [7] (HFD mice, 15 mg/kg, IV twice a week, 5 weeks, vs saline, listed as Free R, 15 mg/kg) is reported as “slightly lower”; in the data set on obese C57BL/6J mice [7] (HFD mice, 15 mg/kg, IV twice a week, 5 weeks, vs saline, listed as free R, 15 mg/kg), “no significant reduction”. Also, the body weight gain result in the data set on obese C57BL/6J mice [7] (compared with saline group) is “decrease”. Moreover, the “adipocyte size / area of cells in I-WAT” value in the data set with obese C57BL/6J mice [7] (vs saline) was “no significant reduction”. Besides, the “fasting blood insulin and glucose concentrations compared to saline” value in the data set on obese C57BL/6J mice [8] was “reduced”. Further, the “Cox4a mRNA” value in the data set with 3T3-L1 white adipocytes (20 μM, ISO stimulated) was “increased”. Also, the “CD137 mRNA expression” value with 3T3-L1 white adipocytes (ISO stimulated conditions) is “dose-dependently increased”. For the same molecule, the Tmem26 expression entry with 3T3-L1 white adipocytes (ISO stimulation) was “increased”. Further, the “PRDM16 mRNA expression” value with 3T3-L1 white adipocytes (basal conditions) is listed as “did not change”. In addition, the “Tmem26 mRNA expression” value with 3T3-L1 white adipocytes (basal conditions) is “decreased”. For the same molecule, the “IGFBP3 mRNA expression compared to controls” value in the data set with 3T3-L1 white adipocytes (both basal and ISO stimulated conditions) is on record as “dose-dependently decreased”.

B1: ligand-coated Rnano (L-Rnano): resveratrol-loaded lipid nanoparticle carrying DSPE-PEG5000-peptide, the linear ASC-targeting peptide … (SEQ ID NO: 2), on its … (peptide)
peptide: GSWKYWFGEGGC([MAL-PEG5000-DSPE])
modifications: also: displayed in many copies on lipid nanoparticle, copy number not given here
For the molecule B1, the fold DiD positive rate of ΔDCN cells against DiD-labeled Rnano in [9] is 5 fold. In addition, in data set [10], the DiD+ ASC after intravenous injection, DiD-L-Rnano mouse against DiD-Rnano treatment (flow cytometry; depot not given, I-WAT by context) amounted to 9.3 fold; the DiD+ cell ratio among the ASC population after intravenous injection of DiD-L-Rnano (flow cytometry; depot not given, I-WAT by context) stood at 31.7%; the cellular R content of SVCs at 4° C., against free R-treated SVF cells amounted to 2.8 fold; the cellular R content of SVCs at 37° C., against free R-treated SVF cells turned out to be 2.5 fold. In data set [10], this molecule yielded a percentage of DiD+ ASC in G-WAT after intravenous injection, DiD-L-Rnano mouse against DiD-Rnano mouse (flow cytometry) of 3.5 fold and a percentage of DiD+ ASC in RP-WAT after intravenous injection, DiD-L-Rnano mouse against DiD-Rnano mouse (flow cytometry) of 4.8 fold. The molecule also displayed a ΔDCN cells R content at 4° C. for 4 hours, against free R and Rnano in data set [11] of 2 fold.
